Results published in patent US20230019491A1, “PYRIMIDINE TBK/IKKe INHIBITOR COMPOUNDS AND USES THEREOF” (Merck Patent GmbH, priority 2017, published 2023).
Where a name gives a salt, the structure may show the parent alone.

Assays:
TBK1 = target: T1, TBK1 (Homo sapiens, UniProt Q9UHD2); assay: TBK biochemical assay; conditions: 10 point 1:4 dose response, 30 uM top concentration, 90 min at 25° C., LabChip EZ Reader II; read-out: TBK1_IC50
T1 sequence (Q9UHD2 1-729): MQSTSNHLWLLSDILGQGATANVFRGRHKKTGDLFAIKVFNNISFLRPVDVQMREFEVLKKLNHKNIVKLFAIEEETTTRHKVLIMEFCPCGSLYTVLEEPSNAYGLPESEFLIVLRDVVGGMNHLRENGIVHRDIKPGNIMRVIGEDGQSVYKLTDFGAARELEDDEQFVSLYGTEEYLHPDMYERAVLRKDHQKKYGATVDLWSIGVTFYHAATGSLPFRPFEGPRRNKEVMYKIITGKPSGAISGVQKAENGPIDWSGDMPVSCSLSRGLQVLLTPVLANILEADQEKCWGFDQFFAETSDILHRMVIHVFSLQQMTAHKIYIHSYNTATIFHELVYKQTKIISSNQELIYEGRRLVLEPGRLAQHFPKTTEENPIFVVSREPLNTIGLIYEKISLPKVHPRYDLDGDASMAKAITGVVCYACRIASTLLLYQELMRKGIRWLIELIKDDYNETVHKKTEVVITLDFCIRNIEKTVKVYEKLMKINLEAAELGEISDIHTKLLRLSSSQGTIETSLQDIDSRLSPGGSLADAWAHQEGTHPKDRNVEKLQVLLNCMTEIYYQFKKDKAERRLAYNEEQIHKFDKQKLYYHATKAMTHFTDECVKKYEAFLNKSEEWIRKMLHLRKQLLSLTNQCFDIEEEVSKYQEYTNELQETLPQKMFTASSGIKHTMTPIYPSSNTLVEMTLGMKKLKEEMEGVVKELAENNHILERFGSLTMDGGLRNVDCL
In short: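 Substrate and product were separated and quantified by microfluidic mobility-shift read (LabChip). 10 uM staurosporine served as the full-inhibition control, and the reference compound was tested from 1 uM final.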

IKKε = target: T2, IKKε (Homo sapiens, UniProt Q14164); assay: IKKε biochemical assay; conditions: 10 point 1:4 dose response, 30 uM top concentration, 90 min at 25° C., LabChip EZ Reader II; read-out: IKKε_IC50
T2 sequence (Q14164 1-716): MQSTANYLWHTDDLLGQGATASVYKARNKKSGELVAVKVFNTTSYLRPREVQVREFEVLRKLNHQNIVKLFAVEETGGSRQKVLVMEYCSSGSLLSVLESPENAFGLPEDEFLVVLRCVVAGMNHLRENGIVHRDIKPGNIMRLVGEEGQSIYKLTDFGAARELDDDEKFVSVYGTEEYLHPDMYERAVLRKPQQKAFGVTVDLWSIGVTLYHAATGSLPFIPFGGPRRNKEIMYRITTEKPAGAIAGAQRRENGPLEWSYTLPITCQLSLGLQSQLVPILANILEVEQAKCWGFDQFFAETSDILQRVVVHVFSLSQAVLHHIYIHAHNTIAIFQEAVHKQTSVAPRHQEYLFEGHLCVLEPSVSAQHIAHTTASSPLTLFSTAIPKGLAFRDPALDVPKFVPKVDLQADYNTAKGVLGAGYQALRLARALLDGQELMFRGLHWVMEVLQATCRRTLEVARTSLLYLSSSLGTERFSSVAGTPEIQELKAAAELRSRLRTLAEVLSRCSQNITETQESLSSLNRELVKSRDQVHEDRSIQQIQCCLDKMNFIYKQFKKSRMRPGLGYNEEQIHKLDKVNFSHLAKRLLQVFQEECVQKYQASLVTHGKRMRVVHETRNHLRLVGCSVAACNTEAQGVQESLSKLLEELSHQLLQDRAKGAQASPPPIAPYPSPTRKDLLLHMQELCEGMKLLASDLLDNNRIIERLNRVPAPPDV
In short: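 Compounds in 1% DMSO final were incubated with IKKε enzyme and substrate at 25° C. for 90 min, then stopped. Substrate and product peaks were resolved by LabChip EZ Reader II mobility-shift read-out. Staurosporine at 10 uM final served as the full-inhibition control.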

IC50 (TBK1) | IC50 (IKKε) | Compound
< 100 nM | < 100 nM | COc1cc(Nc2nccc(-c3ccc(OC4CCOCC4)c(C#N)c3)n2)cnc1N1CCN(C)CC1 [Example 54, 5-(2-[[5-methoxy-6-(4-methylpiperazin-1-yl)pyridin-3-yl]amino]pyrimidin-4-yl)-2-(oxan-4-yloxy)benzonitrile]
> 5000 nM | > 5000 nM | COc1cc(Nc2nccc(-c3cc(C#N)c(OC4CCOCC4)cn3)n2)ncc1N1CCN(C)CC1 [Example 55, 2-(2-[[4-methoxy-5-(4-methylpiperazin-1-yl)pyridin-2-yl]amino]pyrimidin-4-yl)-5-(oxan-4-yloxy)pyridine-4-carbonitrile hydrochloride]
100 to 1000 nM | 100 to 1000 nM | COc1cc(Nc2nccc(-c3cc(C#N)c(OC4CCOCC4)cn3)n2)cnc1N1CCN(C)CC1 [Example 56, 2-(2-[[5-methoxy-6-(4-methylpiperazin-1-yl)pyridin-3-yl]amino]pyrimidin-4-yl)-5-(oxan-4-yloxy)pyridine-4-carbonitrile]
< 100 nM | < 100 nM | COc1cc(Nc2nccc(-c3ccc(OC4CCOCC4)c(C#N)c3)n2)cnc1C1CCN(C)CC1 [Example 57, 5-(2-[[5-methoxy-6-(1-methylpiperidin-4-yl)pyridin-3-yl]amino]pyrimidin-4-yl)-2-(oxan-4-yloxy)benzonitrile]
1000 to 5000 nM | > 5000 nM | COc1cc(C(=O)N(C)C)cnc1Nc1nccc(-c2ccc(OC3CCOCC3)c(C#N)c2)n1 [Example 58, 6-([4-[3-cyano-4-(oxan-4-yloxy)phenyl]pyrimidin-2-yl]amino)-5-methoxy-N,N-dimethylpyridine-3-carboxamide]
100 to 1000 nM | < 100 nM | COc1cc(Nc2nccc(-c3ccc(OC4CCOCC4)c(C#N)c3)n2)ncc1C1CCN(C)CC1 [Example 59, 5-(2-[[4-methoxy-5-(1-methylpiperidin-4-yl)pyridin-2-yl]amino]pyrimidin-4-yl)-2-(oxan-4-yloxy)benzonitrile hydrochloride]
> 5000 nM | > 5000 nM | COc1cc(C(=O)N(C)C)cnc1Nc1nccc(-c2ccc(NC3CCOCC3)c(C#N)c2)n1 [Example 60, 6-[(4-[3-cyano-4-[(oxan-4-yl)amino]phenyl]pyrimidin-2-yl)amino]-5-methoxy-N,N-dimethylpyridine-3-carboxamide]
100 to 1000 nM | 100 to 1000 nM | COc1cc(C(=O)N(C)C)ncc1Nc1nccc(-c2ccc(NC3CCOCC3)c(C#N)c2)n1 [Example 61, 5-[(4-[3-cyano-4-[(oxan-4-yl)amino]phenyl]pyrimidin-2-yl)amino]-4-methoxy-N,N-dimethylpyridine-2-carboxamide]
< 100 nM | 100 to 1000 nM | COc1nc(C(=O)N(C)C)ccc1Nc1nccc(-c2ccc(NC3CCOCC3)c(C#N)c2)n1 [Example 62, 5-[(4-[3-cyano-4-[(oxan-4-yl)amino]phenyl]pyrimidin-2-yl)amino]-6-methoxy-N,N-dimethylpyridine-2-carboxamide]
< 100 nM | < 100 nM | COc1nc(Nc2nccc(-c3ccc(NC4CCOCC4)c(C#N)c3)n2)ccc1C(=O)N(C)C [Example 63, 6-[(4-[3-cyano-4-[(oxan-4-yl)amino]phenyl]pyrimidin-2-yl)amino]-2-methoxy-N,N-dimethylpyridine-3-carboxamide]
< 100 nM | < 100 nM | COc1nc(Nc2nccc(-c3ccc(NC4CCOCC4)c(C#N)n3)n2)ccc1C(=O)N(C)C [Example 64, 6-[(4-[6-cyano-5-[(oxan-4-yl)amino]pyridin-2-yl]pyrimidin-2-yl)amino]-2-methoxy-N,N-dimethylpyridine-3-carboxamide]
< 100 nM | < 100 nM | CN1CCN(c2ccc(Nc3nccc(-c4ccc(OC5CCOCC5)c(C#N)c4)n3)cn2)CC1 [Example 66, 5-{2-[6-(4-Methyl-piperazin-1-yl)-pyridin-3-ylamino]-pyrimidin-4-yl}-2-(tetrahydro-pyran-4-yloxy)-benzonitrile]
< 100 nM | < 100 nM | COc1nc(Nc2ncc(F)c(-c3ccc(OC4CCOCC4)c(C#N)c3)n2)ccc1N1CCN(C)CC1 [Example 67, 5-{5-Fluoro-2-[6-methoxy-5-(4-methyl-piperazin-1-yl)-pyridin-2-ylamino]-pyrimidin-4-yl}-2-(tetrahydro-pyran-4-yloxy)-benzonitrile]
< 100 nM | < 100 nM | COc1nc(Nc2nccc(-c3ccc(OC4CCOC4)c(C#N)n3)n2)ccc1C(=O)N(C)C (centres unmarked) [Example 68, 6-([4-[6-cyano-5-(oxolan-3-yloxy)pyridin-2-yl]pyrimidin-2-yl]amino)-2-methoxy-N,N-dimethylpyridine-3-carboxamide]
100 to 1000 nM | 100 to 1000 nM | COc1nc(Nc2nccc(-c3ccc(OC4CN(C)C4)c(C#N)c3)n2)ccc1C(=O)N(C)C [Example 69, 6-[(4-[3-cyano-4-[(1-methylazetidin-3-yl)oxy]phenyl]pyrimidin-2-yl)amino]-2-methoxy-N,N-dimethylpyridine-3-carboxamide]
100 to 1000 nM | 100 to 1000 nM | COc1nc(Nc2nccc(-c3ccc(OC4CCN(C)C4)c(C#N)c3)n2)ccc1C(=O)N(C)C (centres unmarked) [Example 70, 6-[(4-[3-cyano-4-[(1-methylpyrrolidin-3-yl)oxy]phenyl]pyrimidin-2-yl)amino]-2-methoxy-N,N-dimethylpyridine-3-carboxamide hydrochloride]
100 to 1000 nM | 100 to 1000 nM | COc1nc(Nc2nccc(-c3ccc(OC4CCN(C)CC4)c(C#N)c3)n2)ccc1C(=O)N(C)C [Example 71, 6-[(4-[3-cyano-4-[(1-methylpiperidin-4-yl)oxy]phenyl]pyrimidin-2-yl)amino]-2-methoxy-N,N-dimethylpyridine-3-carboxamide hydrochloride]
< 100 nM | < 100 nM | COc1nc(Nc2nccc(-c3ccc(OC4CCNCC4)c(C#N)c3)n2)ccc1C(=O)N(C)C [Example 72, 6-([4-[3-cyano-4-(piperidin-4-yloxy)phenyl]pyrimidin-2-yl]amino)-2-methoxy-N,N-dimethylpyridine-3-carboxamide]
< 100 nM | < 100 nM | COc1nc(Nc2nccc(-c3ccc(OC4CCN(C(=O)CO)CC4)c(C#N)c3)n2)ccc1C(=O)N(C)C [Example 73, 6-[[4-(3-cyano-4-[[1-(2-hydroxyacetyl)piperidin-4-yl]oxy]phenyl)pyrimidin-2-yl]amino]-2-methoxy-N,N-dimethylpyridine-3-carboxamide]
< 100 nM | < 100 nM | COc1nc(Nc2nccc(-c3ccc(O[C@H]4CCNC[C@H]4F)c(C#N)c3)n2)ccc1C(=O)N(C)C [Example 74, 6-[[4-(3-cyano-4-[[(3R,4S)-3-fluoropiperidin-4-yl]oxy]phenyl)pyrimidin-2-yl]amino]-2-methoxy-N,N-dimethylpyridine-3-carboxamide]
< 100 nM | < 100 nM | COc1nc(Nc2nccc(-c3ccc(O[C@H]4CCN(C(=O)CO)C[C@H]4F)c(C#N)c3)n2)ccc1C(=O)N(C)C [Example 75, 6-[[4-(3-cyano-4-[[(3R,4S)-3-fluoro-1-(2-hydroxyacetyl)piperidin-4-yl]oxy]phenyl)pyrimidin-2-yl]amino]-2-methoxy-N,N-dimethylpyridine-3-carboxamide hydrochloride]
< 100 nM | < 100 nM | COc1nc(Nc2nccc(-c3ccc(OC4CCNCC4(F)F)c(C#N)c3)n2)ccc1C(=O)N(C)C (centres unmarked) [Example 76, 6-[(4-[3-cyano-4-[(3,3-difluoropiperidin-4-yl)oxy]phenyl]pyrimidin-2-yl)amino]-2-methoxy-N,N-dimethylpyridine-3-carboxamide]
